Data taken from ChEMBL document CHEMBL4406836, “The design of a cell-selective fowlicidin-1-derived peptide with both antimicrobial and anti-inflammatory activities” (Eur J Med Chem, 2019).
Converted amounts (≈) assume the structure as drawn. The source made the active and inactive calls. The rule behind the calls is not given here.

Columns and labels:
Pseudomonas aeruginosa = test: Antibacterial activity against multidrug-resistant Pseudomonas aeruginosa CCARM 2095 assessed as reduction in bacterial growth incubated for 72 hrs by spectrophotometry; assay type: functional; conditions: CCARM 2095, 72 h
Staphylococcus aureus [1] = test: Antibacterial activity against methicillin-resistant Staphylococcus aureus CCARM 3089 assessed as reduction in bacterial growth incubated for 72 hrs by spectrophotometry; assay type: functional; conditions: CCARM 3089, 72 h
Enterococcus faecium = test: Antibacterial activity against vancomycin-resistant Enterococcus faecium ATCC 51559 assessed as reduction in bacterial growth incubated for 18 hrs by spectrophotometry based microtiter broth dilution method; assay type: functional; conditions: ATCC 51559, 18 h
Staphylococcus aureus [2] = test: Induction of cytoplasmic membrane depolarization in Staphylococcus aureus at 2 times of MIC for a period of 600 sec by DiSC3-5-fluorescence based assay; assay type: functional, organism-based
Staphylococcus aureus [3] = test: Induction of cytoplasmic membrane depolarization in Staphylococcus aureus at 2 times of MIC within 4 mins by SYTOX green-based assay; assay type: functional, organism-based
Escherichia coli = test: Induction of membrane integrity disruption in Escherichia coli at 2 times of MIC by propidium iodide staining based flow cytometry relative to control (reference value: 2.97 %); assay type: functional

Row | SMILES | MIC (Pseudomonas aeruginosa) [µM] | MIC (Staphylococcus aureus [1]) [µM] | MIC (Enterococcus faecium) [µM] | Activity (Staphylococcus aureus [2]) | Activity (Staphylococcus aureus [3]) | Activity (Escherichia coli) [%]
1 | Cc1onc(-c2ccccc2)c1C(=O)N[C@@H]1C(=O)N2[C@@H]1SC(C)(C)[C@@H]2C(=O)O [OXACILLIN] | 512 (≈ 206 µg/mL) | 512 (≈ 206 µg/mL) | – | – | – | –
2 | O=C(N[C@H](CO)[C@H](O)c1ccc([N+](=O)[O-])cc1)C(Cl)Cl [CHLORAMPHENICOL] | 1020 (≈ 331 µg/mL) | 128 (≈ 41.4 µg/mL) | – | – | – | –
3 | O=C(O)c1cn(C2CC2)c2cc(N3CCNCC3)c(F)cc2c1=O [CIPROFLOXACIN] | 512 (≈ 170 µg/mL) | 1020 (≈ 339 µg/mL) | – | – | – | –
4 | CC[C@H](C)[C@H](NC(=O)CN)C(=O)NCC(=O)N[C@@H](C)C(=O)N[C@H](C(=O)N[C@@H](CC(C)C)C(=O)N[C@@H](CCCCN)C(=O)N[C@H](C(=O)N[C@@H](CC(C)C)C(=O)N[C@H](C(=O)N[C@H](C(=O)NCC(=O)N[C@@H](CC(C)C)C(=O)N1CCC[C@H]1C(=O)N[C@@H](C)C(=O)N[C@@H](CC(C)C)C(=O)N[C@H](C(=O)N[C@@H](CO)C(=O)N[C@@H](Cc1c[nH]c2ccccc12)C(=O)N[C@H](C(=O)N[C@@H](CCCCN)C(=O)N[C@@H](CCCNC(=N)N)C(=O)N[C@@H](CCCCN)C(=O)N[C@@H](CCCNC(=N)N)C(=O)N[C@@H](CCC(N)=O)C(=O)N[C@@H](CCC(N)=O)C(N)=O)[C@@H](C)CC)[C@@H](C)CC)[C@@H](C)O)[C@@H](C)O)C(C)C)C(C)C [MELITTIN] | – | – | 8 (≈ 22.8 µg/mL) | Active | Active | 75.38
